Reference: patent US20150164968A1, “Method of Producing Banana-Derived Composition and Biologically Active Substance Containing Same” (priority 2013, published 2015)

Assay: Action of antioxidation, OXY Adsorbent Test (FREE)
Conditions: solution at 10 mg/ml in ultrapure water
Procedure: The banana-derived composition 4 (the secondary refined product) as the biologically active substance and vitamin C were dissolved in ultrapure water to prepare solutions each at a concentration of 10 mg/ml. An antioxidation ability was measured twice for each of the prepared solutions. In detail, the antioxidation ability against oxidation through hypochlorous acid (HClO) was measured by means of Free Radical Elective Evaluator (FREE) manufactured by […] Co., Ltd. Oxygen (OXY) Adsorbent Test was applied to the measurement. As a result of the measurement, a concentration of HClO neutralized is obtained in the unit of μmol HClO/mL. A higher concentration value means a better HClO neutralization ability, that is to say, a stronger antioxidative action.

## O=C1O[C@H]([C@@H](O)CO)C(O)=C1O [Vitamin C, vitamin C]
  concentration of HClO neutralized, 1st measurement: 71.7 μmol HClO/mL
  concentration of HClO neutralized, 2nd measurement: 79.7 μmol HClO/mL
Average of two measurements
  concentration of HClO neutralized, Average: 75.7 μmol HClO/mL
